{"source": "patent US8519183B2", "about": "“Uses for amino acid anticonvulsants” (Research Corporation Technologies, Inc., priority 2000, dated 2013)", "key": {"[1]": {"target": "T1, serotonin 5-HT1A receptor (Rattus norvegicus, UniProt P19327)", "T1 construct": "from tissue; host or cells: living Long Evans derived rat (in vivo)", "T1 sequence (P19327 1-422)": "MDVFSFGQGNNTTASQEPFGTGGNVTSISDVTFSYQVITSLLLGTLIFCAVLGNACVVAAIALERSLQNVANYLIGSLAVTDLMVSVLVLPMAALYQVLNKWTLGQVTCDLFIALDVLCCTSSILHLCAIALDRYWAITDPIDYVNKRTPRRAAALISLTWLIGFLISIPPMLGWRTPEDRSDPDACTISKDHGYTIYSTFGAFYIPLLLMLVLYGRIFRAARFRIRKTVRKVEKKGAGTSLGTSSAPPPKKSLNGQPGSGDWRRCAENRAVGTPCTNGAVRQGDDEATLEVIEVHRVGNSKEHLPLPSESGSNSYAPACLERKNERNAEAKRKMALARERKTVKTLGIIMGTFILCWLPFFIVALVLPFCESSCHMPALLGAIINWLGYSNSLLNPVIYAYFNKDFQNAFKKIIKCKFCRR", "assay": "5-MeODMT-induced head twitch", "assay_type": "in vivo, rats", "conditions": "10 mg/kg PO, 3 rats", "protocol": "Test substance was administered PO (30 mg/kg) to a group of 3 Long Evans derived male or female rats weighing 150±20 gms one hour before injection of 5-MeODMT (5-methoxy-N,N-dimethyltryptamine, 3 mg/kg IP)."}, "NMDA receptor": {"target": "NMDA receptor (Mus musculus, UniProt P35438)", "assay": "NMDA receptor agonism/antagonism after ICVT administration", "conditions": "ICVT 1 μg/mouse, N 3"}, "[2]": {"tested_on": "ICR derived male or female mice", "assay": "formalin induced hind paw licking", "assay_type": "in vivo", "conditions": "300 mg/kg PO", "protocol": "The degree of pain is determined by measuring the decrease in the amount of time the animal spends licking the formalin-injected paw after administration of the drug.\nReduction of the induced hind paw licking time recorded during the following 20 to 30 minutes period by 50 percent or more (50%) indicated analgesic activity."}, "[3]": {"tested_on": "ICR derived male or female mice", "assay": "Analgesia, Acetic Acid Writhing", "assay_type": "in vivo", "conditions": "100 mg/kg PO", "description": "In the first animal study in Example 1, the degree of pain experienced by the mice after injection by acetic acid is seen by the number of writhes. If the mice experience no pain, there is no writhing.\nThe protocol is based on the acetic acid writhing test in mice, developed by R. Koster, et al. Fed. Proc, 18, 412 […], and referred to a Koster test and Hunskarai, S., et al., J. Neuroscience Meth. 14: 69-76, 1985.\nReduction in the number of writhes by 50 percent or more (≧50%) per group of animals observed during the 5 to 10 minute period after acetic acid administration, relative to a vehicle treated control group, indicated analgesic activity."}, "Holtzman male rats": {"tested_on": "Holtzman male rats", "assay": "NMDA Induced Hyperalgesia (thermal escape latency)", "assay_type": "in vivo", "protocol": "Holtzman male rats weighing 275 to 325 grams were prepared with lumbar intrathecal catheters under isoflurane anesthesia. The catheters were externalized on the back of the head. Four to five days after implant, the animals were employed.\nNMDA administration was accomplished using a gear driven microinjection syringe connected to the spinal catheter by a length of calibrated PE-90 tubing. The catheter plug was immediately replaced to avoid back flow and the rat was replaced in its testing box.\nA modified Hargreaves box was used which allows the direction of a focused light beam on the underface of the paw through a glass surface upon which the rat stands. Surface temperature was maintained at 30° C. Withdrawal of the paw was taken as the response. Lack of response within twenty seconds was cause to terminate the test and assign that score.\nThe rats were placed on the thermal escape box and allowed to acclimate for 30 minutes prior to testing. A measurement was taken for each hindpaw to establish an average baseline latency (counted as time=0). (2R)-2-(acetylamino)-N-[(4-fluorophenyl)methyl]-3-methoxypropanamide solution, that is, test product in this experiment, was given at an intrathecal dose of 1 μg/10 μl 10 minutes prior to intrathecal NMDA. A control group was given an identical amount of saline 10 minutes prior to intrathecal NMDA. Measurements were then made at 15, 30, 60, 120, 240 and 360 minutes after intrathecal NMDA injection. General behavior assessments were made during each period of observation and include: tactile allodynia (vocalization/agitation induced by light touch applied to the body surface), spontaneous vocalization, biting and chewing of body surface, loss of hind limb placing and stepping reflex, loss of hind limb weight bearing and loss of righting reflex."}, "Sprague Dawley male rats [4]": {"tested_on": "Sprague Dawley male rats", "assay": "general behavioral assessment at intraperitoneal doses of 30 to 100 mg/kg", "assay_type": "in vivo", "description": "General behavioral assessments were made during each period of observation and include: tactile allodynia (vocalization/agitation induced by light touch applied to the body surface), spontaneous vocalization, biting and chewing of body surface, loss of hind limb placing and stepping reflex, loss of hind limb weight bearing, and loss of righting reflex. All assessments, were noted as “present”, “absent” or ranked according to a graded scale.\nFour rats were examined at intraperitoneal (IP) doses of 30 to 100 mg/kg."}, "Sprague Dawley male rats [5]": {"tested_on": "Sprague Dawley male rats", "assay": "Chung model of neuropathy, tactile threshold (von Frey hairs)", "assay_type": "in vivo", "protocol": "Sprague Dawley male rats weighing 275 to 325 grams was used in this experiment. In this experiment, the response to neuropathic pain was determined. The neuropathic preparation used to induce an allodynic state is the surgical procedure described by Kim and Chung in Pain, 1992, 50, 355-363 (1992) and outlined in Chaplain, et al. in J. Neurosci. Meth., 1994, 53, […]. Briefly, the left L5 and L6 spinal nerves were isolated adjacent to the vertebral column and ligated with 6-0 silk suture distal to the dorsal root ganglion under isoflurane anesthesia. The rats were allowed a minimum 7 day postoperative recovery period before placement in the study.\nTesting groups consisted of 6 rats per group. Each group received test article, (2R)-2-acetyl-amino)-N-[(4-fluorophenyl)methyl]-3-methoxypropanamide (hereinafter “test article”), in one of three concentrations delivered intraperitoneally; the high concentration was 50 mg/kg, the medium concentration was 30 mg/kg and the low concentration was 20 mg/kg. One group of 6 rats received saline control solution at a volume equal to that used for test article.\nTo assess tactile thresholds, rats were placed in a clear plastic, wire mesh-bottomed cage, divided into individual compartments. Animals were allowed to accommodate and then baseline thresholds were taken prior to drug treatment. To determine the 50% mechanical threshold for paw withdrawal, von Frey hairs were applied to the plantar mid-hindpaw, avoiding the tori (footpads). The eight von Frey hairs used are designated by [log(10*force required to bend hair, mg)] and range from 0.4-15.1 grams. Each hair was pressed perpendicularly against the paw with sufficient force to cause slight bending, and held for approximately 6-8 seconds. […] Stimuli were presented successively until either six data points were collected, or the maximum or minimum stimulus was reached. […] If a change in response occurred, either “−” to “+” or “+” to “−”, causing a change in the direction of stimulus presentation from descending to ascending or vice-versa, four additional data points were collected subsequent to the change. The resulting pattern of responses were tabulated and the 50% response threshold computer using the formula: log(threshold, mg×10)=Xf+kh\nwherein: • Xf=value of the last von Frey hair applied; • k=correction factor based on response pattern (from calibration table) • h=mean distance in log units between stimuli.\nBased on observations on normal, —operated rats and sham-operated rats, the cutoff of a 15.1-g hair is selected as the upper limit for testing.\nThe test was performed to establish an average baseline value, counted as time 0; then again at 15, 30, 60, 120 and 240 minutes after the dosing by the control saline solution or the test article."}, "male ICR mice": {"tested_on": "male ICR mice", "assay": "radiant heat induced tail flick response", "assay_type": "in vivo", "protocol": "Groups of 4 male ICR mice weighing 22±2 gms were employed. A dose (30 mg/kg) of test compound dissolved in a vehicle of saline was administered intraperitoneally. The control group received vehicle alone. At pretreatment (0 minute) a focused beam of radiant heat was applied to the middle dorsal surface of the tail to elicit a tail flick response within 6-7.5 seconds in pre-treated animals. A maximum cut-off time of 15 seconds was set. The time required to elicit a pain response was recorded for each animal at 0 and 30 minutes following administration of test compound. Prolongation by 50 percent or more (≧50%) of the time required to elicit a tail flick indicated analgesic activity."}}, "note": "Where “and” joins values, the source holds several entries; their conditions need not be identical. Identical values can stand only once."}
{"smiles": "CN1C(=O)CN=C(c2ccccc2)c2cc(Cl)ccc21", "note": "[Diazepam, reference compound]", "values": [{"measurement": "Head Twitch, Ave.", "setting": "[1]", "value": 2}]}
{"smiles": "CN[C@H](CC(=O)O)C(=O)O", "note": "[NMDA, N-methyl-D-aspartate, reference compound]", "values": [{"measurement": "Agonism (mice with convulsions/mortality within 5 minutes)", "setting": "NMDA receptor", "value": 3}]}
{"smiles": "CC(=O)Oc1ccccc1C(=O)O", "note": "[Aspirin, reference compound]", "values": [{"measurement": "% Inh.", "setting": "[2]", "value": 72, "unit": "%"}, {"measurement": "Licking Time, Ave.", "setting": "[2]; 5 mice", "value": 36, "unit": "s"}, {"measurement": "No. of Writhes, X ± SEM", "setting": "[3]; group of 3 mice", "value": "X ± SEM 0 ± 0"}, {"measurement": "No. of Writhes (individual animal)", "setting": "[3]; one hour before acetic acid, 5 to 10 minute period", "value": 0}, {"measurement": "% Inh.", "setting": "[3]; relative to vehicle control", "value": 100, "unit": "%"}]}
{"smiles": "COC[C@@H](NC(C)=O)C(=O)NCc1ccc(F)cc1", "note": "[test article, (2R)-2-(acetylamino)-N-[(4-fluorophenyl)methyl]-3-methoxypropanamide]", "values": [{"measurement": "thermal escape latency, baseline maintained", "setting": "Holtzman male rats; intrathecal 1 μg/10 μl 10 minutes prior to intrathecal NMDA, out to 20 minutes post NMDA injection, n=2", "value": "about 14 second"}, {"measurement": "thermal escape latency after dropping", "setting": "Holtzman male rats; intrathecal 1 μg/10 μl, later than 20 minutes post NMDA injection, n=2", "value": "approximately 10 seconds"}, {"measurement": "anti-hyperalgesic action in NMDA induced thermal hyperalgesia (in words)", "setting": "Holtzman male rats; preliminary data", "value": "measurable anti-hyperalgesic actions"}, {"measurement": "behavioral observation", "setting": "Sprague Dawley male rats [4]; 30 mg/kg IP, one rat", "value": "no behavioral deficit"}, {"measurement": "behavioral observation", "setting": "Sprague Dawley male rats [4]; 50 mg/kg IP, one rat, lasted 60 minutes", "value": "slightly catatonic"}, {"measurement": "behavioral observation", "setting": "Sprague Dawley male rats [4]; 60 mg/kg IP, one rat, within 15 minutes, severe exopthalmos, euthanized", "value": "catatonic and displayed abnormal ambulation"}, {"measurement": "behavioral observation", "setting": "Sprague Dawley male rats [4]; 90 mg/kg IP, one rat, within 15 minutes, flaccid, severe exopthalmos, euthanized", "value": "catatonic and unable to right itself"}, {"measurement": "behavioral observation", "setting": "Sprague Dawley male rats [4]; 100 mg/kg IP, one rat, within 15 minutes, euthanized", "value": "laterally recumbent displaying seizures and bleeding from the nose"}, {"measurement": "behavioral observation", "setting": "Sprague Dawley male rats [4]; Fifteen mg/kg, previously shown", "value": "no observable affect"}, {"measurement": "effect on the Chung Model (in words)", "setting": "Sprague Dawley male rats [5]; 15 mg/kg, previous study", "value": "no effect"}, {"measurement": "tactile threshold after dosing (increase from approximately 2)", "setting": "Sprague Dawley male rats [5]; 20 mg (per kg) IP, 6 rats", "value": "~5", "unit": "grams"}, {"measurement": "rats appearing sedated", "setting": "Sprague Dawley male rats [5]; 30 mg IP, for approximately 1 hour", "value": "Four of 6"}, {"measurement": "tactile threshold after dosing (increase from approximately 2)", "setting": "Sprague Dawley male rats [5]; 30 mg/kg IP, 6 rats", "value": "~5", "unit": "grams"}, {"measurement": "tactile threshold after dosing (increase from 2)", "setting": "Sprague Dawley male rats [5]; 50 mg/kg IP, 6 rats", "value": 11, "unit": "grams"}, {"measurement": "rats appearing sedated", "setting": "Sprague Dawley male rats [5]; 50 mg/kg IP, for approximately 1 hour post injection", "value": "6 of 6"}, {"measurement": "duration of effect after injection", "setting": "Sprague Dawley male rats [5]; IP, Chung Model", "value": "approximately 2 hours"}, {"measurement": "reversal of tactile allodynia (in words)", "setting": "Sprague Dawley male rats [5]; delivered intraperitoneally", "value": "significant reversal of tactile allodynia"}]}
{"smiles": "CN1CC[C@]23c4c5ccc(O)c4O[C@H]2[C@@H](O)C=C[C@H]3[C@H]1C5", "note": "[Morphine, reference compound]", "values": [{"measurement": "% Inh.", "setting": "male ICR mice; 10 mg/kg IP", "value": 100, "unit": "%"}, {"measurement": "Response Time 30 Min. (individual animal)", "setting": "male ICR mice; 10 mg/kg IP, 30 minutes after administration, cut-off 15 seconds", "value": ">15"}, {"measurement": "Response Time 30 Min., X", "setting": "male ICR mice; 10 mg/kg IP, mean of 4 mice", "value": 15.0}, {"measurement": "Response Time 0 Min., X", "setting": "male ICR mice; 10 mg/kg IP, mean of 4 mice, pretreatment", "value": 6.9}, {"measurement": "Response Time 0 Min. (individual animal)", "setting": "male ICR mice; 10 mg/kg IP, pretreatment (0 minute)", "value": "7.4 (2×) and 6.5 and 6.4"}, {"measurement": "radiant heat induced tail flick response (in words)", "setting": "male ICR mice; morphine control", "value": "positive response"}]}
